Measurements taken from PubChem BioAssay (NCI).
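These data come from cells grown in 96-well plates and exposed to compound for 48 hours at five concentrations. TGI: concentration producing complete growth inhibition.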

Assays:
Test in all cases: NCI-60 cell line screen, 48 h
NCI-H226 lung = system: NCI-H226 lung
TK-10 renal = system: TK-10 renal
SF-268 CNS = system: SF-268 CNS
NCI-H460 lung = system: NCI-H460 lung
SF-295 CNS = system: SF-295 CNS
LOX IMVI melanoma = system: LOX IMVI melanoma
NCI-H23 lung = system: NCI-H23 lung
IGROV1 ovarian = system: IGROV1 ovarian
U251 CNS = system: U251 CNS
RPMI-8226 leukemia = system: RPMI-8226 leukemia
M14 melanoma = system: M14 melanoma
HCT-116 colon = system: HCT-116 colon
NCI-H522 lung = system: NCI-H522 lung
COLO 205 colon = system: COLO 205 colon
EKVX NSCLC = system: EKVX NSCLC
SNB-19 CNS = system: SNB-19 CNS
SN12C renal = system: SN12C renal
OVCAR-5 ovarian = system: OVCAR-5 ovarian
SK-MEL-28 melanoma = system: SK-MEL-28 melanoma
RXF 393 renal = system: RXF 393 renal

Measured: TGI

CC1OC1C(=O)P(=O)(O)O (stereo not drawn)
not listed: RXF 393 renal
> 100 µM: all other assays above

CCOC(=O)c1ccc(N2C(=O)/C(=C/c3ccc(N(CCC#N)CCC#N)cc3)N=C2c2cc([N+](=O)[O-])ccc2Cl)cc1
not listed: NCI-H460 lung | M14 melanoma
> 100 µM: all other assays above

Cc1ccccc1NC(=O)C(=O)C(C1OC(=O)c2ccccc21)[N+](=O)[O-] (stereo not drawn)
> 100 µM: all assays above

NCC(=O)N[C@H]1c2ccsc2/C(=N/O)[C@H]1O
not listed: SF-268 CNS | RPMI-8226 leukemia | NCI-H522 lung | SNB-19 CNS
> 100 µM: all other assays above
